Experimental data published in US20060247266A1, “Nitrogen-containing tricyclic compounds” (Asahi Kasei Pharma Corporation, priority 2004, published 2006).

Columns and labels:
intraocular pressure [1] = assay: Intraocular pressure reduction enhancing action, combination with jointly-used drug (Test Example 13, rabbits); type: in vivo; settings: jointly-used drug isopropylunoprostone, dorzolamide hydrochloride, bunazosin hydrochloride or timolol maleate
From the text: For evaluation of intraocular pressure reduction enhancing action of a combination of the compound of the present invention and a jointly-used drug other than latanoprost, rabbits were used as experimental animals, and for evaluation of intraocular pressure reduction enhancing action of a combination of the compound of the present invention and latanoprost, monkeys were used. Naturalization of the rabbits, method for measuring intraocular pressure, and preparation of liquid for eye drop were according to those of Test Example 4. The rabbits were divided into a control group, instillation group for test compound solution alone (single active ingredient preparation group 1), instillation group for jointly-used drug alone (single active ingredient preparation group 2), and instillation group for jointly-used drug and test compound solution (combination use group). After initial values of intraocular pressure of the rabbits in each group were measured, 50 μL of a test compound solution in physiological saline at various concentrations was dropped to the eyes of the rabbits of the single active ingredient preparation group 1 and the combination use group, and physiological saline of the same volume was dropped to the eyes of the rabbits of the control group and the single active ingredient preparation group 2. […] Then, the intraocular pressure was measured in time course for each group. […]

trachea = assay: Tracheal relaxation action (Test Example 11); design: species or system Hartley guinea pigs; settings: constricted with 10 μM histamine
Protocol: Hartley guinea pigs (male, 300 to 600 g) were bled to death, and each trachea was extracted. The trachea was first cut on the pair of smooth muscles side along the direction parallel to the smooth muscles, then cut along the cartilage to prepare a sample in the form of a strip having a width of about 2 to 3 mm. After removing […], the sample was suspended with a static load of […] in a Magnus bath containing Krebs-Henseleit solution of 37° C. bubbled with a mixed gas of 95% O2 and 5% CO2. Generated tension was recorded on a recorder via an isometric transducer (FD Pickup TB-612T, Nihon Kohden).
After suspending the sample, and waiting for 1 hour or more until a stable ground line was obtainable, a constriction substance was administered, and then the experiment was started after reproducible constriction was obtainable. During this procedure, the solution in the Magnus bath was changed every about 30 minutes. The sample was constricted with 10 μM histamine, and after the time point that the generated tension was stabilized, a test drug was cumulatively administered at various concentrations to examine change in tension of the sample.

[2] = tested on: OVA-induced respiratory tract inflammation; assay: Chronic respiratory tract inflammation suppressing action (Test Example 7); type: in vivo, BALB/c female mice; settings: administration by infusion pump once a day for 5 days
Protocol: According to Henderson, W. R., et al., Am. J. Respir. Cric. Care Med., 165(1), 108-116 (2002), suppressing action on bronchial inflammation was confirmed. BALB/c female mice (7-week old) were used for the test, which were grouped into a negative control group, a positive control group, and a drug administration group. The mice of each group were intraperitoneally administered with ovalbumin (OVA, 100 ng, Sigma) and 1 mg of aluminum hydroxide for initial immunization, and after 2 weeks, they are subcutaneously administered with 10 μg of OVA as additional immunization. In the following experiments, test compounds are used as a solution obtained by dissolving each compound in water containing 0.5% carboxymethylcellulose. […]
Twenty four hours after the final OVA inhalation or inhalation of physiological saline, pulmonary cavities of the test animals were washed with physiological saline containing 1% BSA, and the total infiltrated white blood cells (WBC) were counted. […]
Twenty four hours after the final drug administration, pulmonary cavities of the test animals were washed with physiological saline, and the total infiltrated white blood cells (WBC) were counted.

[3] = tested on: lipopolysaccharide-induced inflammation; assay: Acute respiratory tract inflammation suppressing action (Test Example 8); type: in vivo, BALB/c female mice; settings: LPS inhalation; for acute respiratory tract inflammation, total infiltrated leucocyte number (WBC): test compound by infusion pump; for acute respiratory tract inflammation, total infiltrated leucocyte (WBC) number: test compound by nebulizer inhalation over 10 minutes
From the text: According to Gonzales de Moraes, V L., et al., Br. J. Pharmacol., 123, pp. 631-6, 1998, suppressing action on pulmonary inflammation was studied. BALB/c female mice (7-week old) were used for the test, as the compound administration group and positive control group, each consisting of 7 mice, as well as the negative control group consisting of 5 mice. For induction of inflammation, a 0.03% physiological saline solution of a lipopolysaccharide (LPS, a mixture derived from Escherichia coli O55 and B5 strains, Sigma) was used. A test compound was dissolved in physiological saline to prepare solutions of various concentrations. […] Then, 1 minute after the completion of the inhalation of the lipopolysaccharide solution, the animals were administered with a solution of test compound at various concentrations over 10 minutes by inhalation using the aforementioned nebulizer. The mice of the positive control group were administered with the same volume of physiological saline instead of the test compound solution over 10 minutes by inhalation. The mice of the negative control group were inhaled with physiological saline instead of the lipopolysaccharide solution by inhalation, and then administered with the same volume of physiological saline instead of the test compound solution by inhalation. Three hours after the administration of the test compound, pulmonary cavities of the test animals were washed with physiological saline, and the total infiltrated leucocyte (WBC) number was counted.
Further, after starting the administration of the test compound solution by using an infusion pump, the mice of the drug administration group was inhaled with the lipopolysaccharide solution over 10 minutes by the aforementioned method to induce inflammation. At the same time, the mice of the positive control group were administered with the same volume of physiological saline instead of the test compound, and inflammation was induced by the aforementioned method. For the mice of the negative control group, the same procedure was performed by using physiological saline instead of the test compound, and physiological saline instead of the lipopolysaccharide solution. Three hours after the induction of respiratory tract inflammation, pulmonary cavities of the test animals were washed with physiological saline, and the total infiltrated leucocyte number (WBC) was counted.

[4] = tested on: cerebral hippocampal neurons; assay: Neurite outgrowth action (Test Example 5); type: cell-based, Sprague-Dawley rats; settings: neurite length 24 hours after addition
Protocol: From 18 day-old Sprague-Dawley rats, cerebral hippocampal neurons were prepared according to the method of Neuman et al. (Neuman, H. R. et al., J. Neurosci., 22, pp. 854-862, 2002). The prepared neurons were cultured for 24 hours according to the method of Tanaka et al. (Tanaka, H. et al., J. Cell Biol., 158 (2), pp. 321-329, 2002), then the medium was exchanged with fresh medium, and test medicaments of various concentrations or equivalent amounts of vehicle were added. Twenty-four hours after the addition of the medicaments, neurite length of each neuron was measured for the medicament-added group and the no-addition group, and compared. The neurite length was evaluated according to the method of Neuman et al. (Neuman, H. R. et al., J. Neurosci., 22, pp. 854-862, 2002).

thoracic aorta = assay: Vasoconstriction inhibitory action (Test Example 2); design: species or system Rats (Wistar); settings: aorta constricted with phenylephrine (1 μM), test compound (1 μM)
From the text: Rats (Wistar, 11-week old) were bleeded to death and laparotomized to take out the thoracic aorta. That aorta was cut into a ring of a length of about 3 mm in a conventional manner (Asano, T., et al., J. Pharmacol. Exp. Ther., 241, pp. 1033-1040 (1987)) and hung in 10-ml organ bath filled with Krebs-Hensright nutrient solution bubbled with a mixed gas of 95% O2 and 5% CO2. One end of the blood vessel was connected to an isometric transducer (FD Pickup TB-912T, Nihon Kohden) and applied with 2.5 g of resting tension, and constriction and relaxation reactions of the aorta were recorded.
The aorta was constricted with phenylephrine (1 μM, Sigma) and then added with a test compound (1 μM), and the vasoconstriction inhibitory action thereof was observed. The vasoconstriction inhibitory actions of the test compounds were calculated as relaxation ratios, which were based on the vasoconstriction with phenylephrine observed immediately before the addition of the test compounds taken as 100%.

[5] = tested on: respiratory tract constriction induced by ovalbumin; assay: Action of suppressing respiratory tract constriction induced by antigen stimulation (Test Example 3); type: in vivo, Hartley guinea pigs; settings: for respiratory tract constriction suppression action by inhalation: 0.1% ovalbumin inhalation, test compound by nebulizer inhalation over 5 minutes; for respiratory tract constriction suppressing action: ovalbumin-immunized guinea pigs, test medicament from cannula in hind leg vein, airway resistance for 15 minutes
[6] = tested on: histamine-induced constriction of respiratory tract; assay: Action of suppressing respiratory tract constriction induced by constriction elicitor (Test Example 12); type: in vivo, Hartley guinea pigs; settings: 100 μl test compound solution sprayed onto the respiratory tract
intraocular pressure [7] = assay: Intraocular pressure reducing action (Test Example 4); type: in vivo, Japanese white rabbit; settings: 50 μl of aqueous solution dropped to the left eye
Protocol: A Japanese white rabbit having a body weight of about 2 kg was placed in a positioner and naturalized for one week before the experiment. An ophthalmologic local anesthesant (Benoxil) was administered to the left eye, and then intraocular pressure was measured by using a tonometer (Classic 30, Solan). The initial value of the intraocular pressure was measured, then 50 μl of an aqueous solution of a test compound was dropped to the left eye at various concentrations, and the intraocular pressure was measured with passage of time.

SMILES	intraocular pressure reducing action, combination use group versus single active ingredient preparation groups 1 and 2 (intraocular pressure [1])	suppression of constriction of the trachea sample (trachea)	chronic respiratory tract inflammation, total infiltrated white blood cells (WBC) [2]	acute respiratory tract inflammation, total infiltrated leucocyte number (WBC) [3]	acute respiratory tract inflammation, total infiltrated leucocyte (WBC) number [3]	neurite outgrowth [4]	vasoconstriction inhibitory action (thoracic aorta)	respiratory tract constriction suppression action by inhalation [5]	respiratory tract constriction suppressing action [5]	suppression of constriction of respiratory tract induced by histamine [6]	intraocular pressure reducing action (intraocular pressure [7])
FC1CNCCC1N1CCc2cncc3cccc1c23 (stereo not shown)	Enhancement of the intraocular pressure reducing action was also confirmed	significantly suppressed constriction of the trachea sample	significantly improved the pathological conditions	significantly improved the pathological conditions	significantly improved the pathological conditions	induced significant neurite outgrowth	had vasoconstriction inhibitory action	significantly improved the constriction of respiratory tract	significant respiratory tract constriction suppressing action	significantly suppressed the constriction of respiratory tract	significant intraocular pressure reducing action
CN(CCO)C1CCC(N2CCc3cncc4cccc2c34)CC1 (stereo not shown)	Enhancement of the intraocular pressure reducing action was also confirmed	significantly suppressed constriction of the trachea sample	significantly improved the pathological conditions	significantly improved the pathological conditions	significantly improved the pathological conditions	induced significant neurite outgrowth	had vasoconstriction inhibitory action	significantly improved the constriction of respiratory tract	significant respiratory tract constriction suppressing action	significantly suppressed the constriction of respiratory tract	significant intraocular pressure reducing action
